Laboratory results taken from the supplement of paper PMC10307832.

Key:
Assay in all cases: relative viability (nuclei count vs DMSO), 5 days (fraction); higher = more cells survive
[1] = compound: CC[C@H](Nc1ncnc2[nH]cnc12)c1nc2cccc(F)c2c(=O)n1-c1ccccc1 [Idelalisib] + CC(C)C[C@H](NC(=O)[C@H](Cc1ccccc1)NC(=O)c1cnccn1)B(O)O [Bortezomib] (partner 0.002 µM)
Method in brief: (§1)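 Dosing by pin tool came one day after lung cancer cell lines were seeded in 1536-well plates, using either one drug or a fixed anchor-drug dose plus five library-drug doses (not always all listed) in √10 steps. After 5 days, nuclei were counted on 4× images. Relative viability is treated-well nuclei count divided by vehicle-well nuclei count, and values are medians of duplicate plates.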

[2] = compound: Nc1nc2[nH]cc(CCc3ccc(C(=O)N[C@@H](CCC(=O)O)C(=O)O)cc3)c2c(=O)[nH]1 [Pemetrexed] + C[C@]1(O)C[C@@H](c2nc(-c3ccc4ccc(-c5ccccc5)nc4c3)c3c(N)nccn32)C1 [Linsitinib] (partner 1 µM)
Method in brief: as §1

[3] = compound: CC[C@H](Nc1ncnc2[nH]cnc12)c1nc2cccc(F)c2c(=O)n1-c1ccccc1 [Idelalisib] + Nc1nc2[nH]cc(CCc3ccc(C(=O)N[C@@H](CCC(=O)O)C(=O)O)cc3)c2c(=O)[nH]1 [Pemetrexed] (partner 0.2 µM)
Method in brief: as §1

[4] = compound: CC[C@H](Nc1ncnc2[nH]cnc12)c1nc2cccc(F)c2c(=O)n1-c1ccccc1 [Idelalisib] + CC1(C)CCC(c2ccc(Cl)cc2)=C(CN2CCN(c3ccc(C(=O)NS(=O)(=O)c4ccc(N[C@H](CCN5CCOCC5)CSc5ccccc5)c(S(=O)(=O)C(F)(F)F)c4)cc3)CC2)C1 [Navitoclax] (partner 0.5 µM)
Method in brief: as §1

Question: Which results are given for NCI-H3122?
Answer: relative viability ([1]; first compound 0.04 µM): 1.03; relative viability ([1]; first compound 0.1265 µM): 1.04; relative viability ([1]; first compound 0.4 µM): 1.09; relative viability ([1]; first compound 1.265 µM): 1.09; relative viability ([1]; first compound 4 µM): 1.04; relative viability ([2]; first compound 0.002 µM): 1.01; relative viability ([2]; first compound 0.006325 µM): 1; relative viability ([2]; first compound 0.02 µM): 0.949; relative viability ([2]; first compound 0.06325 µM): 1.01; relative viability ([2]; first compound 0.2 µM): 0.646; relative viability ([3]; first compound 0.04 µM): 0.21; relative viability ([3]; first compound 0.1265 µM): 0.207; relative viability ([3]; first compound 0.4 µM): 0.196; relative viability ([3]; first compound 1.265 µM): 0.188; relative viability ([3]; first compound 4 µM): 0.198; relative viability ([4]; first compound 0.04 µM): 1.07; relative viability ([4]; first compound 0.1265 µM): 1.04; relative viability ([4]; first compound 0.4 µM): 1.02; relative viability ([4]; first compound 1.265 µM): 0.995; relative viability ([4]; first compound 4 µM): 0.961

Question: Which relative viability ([1]; first compound 0.04 µM) does the source give for PC-3 [JPC-3] here?
Answer: Its relative viability is 0.885.

Question: And the relative viability ([1]; first compound 0.1265 µM)?
Answer: The relative viability was 0.837.

Question: What about the relative viability ([1]; first compound 0.4 µM) of the same cell line?
Answer: The relative viability was 0.835.

Question: And the relative viability ([1]; first compound 1.265 µM)?
Answer: The relative viability was 0.806.

Question: And the relative viability ([1]; first compound 4 µM)?
Answer: Its relative viability is 0.809.

Question: And the relative viability ([2]; first compound 0.002 µM)?
Answer: The relative viability was 0.876.

Question: What about the relative viability ([2]; first compound 0.006325 µM) of the same cell line?
Answer: The relative viability was 0.923.

Question: And the relative viability ([2]; first compound 0.02 µM)?
Answer: The relative viability was 0.951.

Question: What about the relative viability ([2]; first compound 0.06325 µM) of the same cell line?
Answer: Its relative viability is 0.981.

Question: What about the relative viability ([2]; first compound 0.2 µM) of the same cell line?
Answer: Its relative viability is 0.944.

Question: And the relative viability ([3]; first compound 0.04 µM)?
Answer: The relative viability was 1.4.

Question: And the relative viability ([3]; first compound 0.1265 µM)?
Answer: The relative viability was 1.16.

Question: And the relative viability ([3]; first compound 0.4 µM)?
Answer: Its relative viability is 1.11.

Question: What about the relative viability ([3]; first compound 1.265 µM) of the same cell line?
Answer: Its relative viability is 1.09.

Question: What about the relative viability ([3]; first compound 4 µM) of the same cell line?
Answer: Its relative viability is 1.08.

Question: What about the relative viability ([4]; first compound 0.04 µM) of the same cell line?
Answer: The relative viability was 0.912.

Question: And the relative viability ([4]; first compound 0.1265 µM)?
Answer: Its relative viability is 0.892.

Question: What about the relative viability ([4]; first compound 0.4 µM) of the same cell line?
Answer: Its relative viability is 0.795.

Question: And the relative viability ([4]; first compound 1.265 µM)?
Answer: The relative viability was 0.668.

Question: What about the relative viability ([4]; first compound 4 µM) of the same cell line?
Answer: Its relative viability is 0.679.

Question: What does the source list for PC-14?
Answer: relative viability ([1]; first compound 0.04 µM): 0.913; relative viability ([1]; first compound 0.1265 µM): 0.996; relative viability ([1]; first compound 0.4 µM): 0.947; relative viability ([1]; first compound 1.265 µM): 0.982; relative viability ([1]; first compound 4 µM): 0.814; relative viability ([2]; first compound 0.002 µM): 0.922; relative viability ([2]; first compound 0.006325 µM): 0.901; relative viability ([2]; first compound 0.02 µM): 1.01; relative viability ([2]; first compound 0.06325 µM): 0.759; relative viability ([2]; first compound 0.2 µM): 0.184; relative viability ([3]; first compound 0.04 µM): 0.15; relative viability ([3]; first compound 0.1265 µM): 0.126; relative viability ([3]; first compound 0.4 µM): 0.148; relative viability ([3]; first compound 1.265 µM): 0.142; relative viability ([3]; first compound 4 µM): 0.135; relative viability ([4]; first compound 0.04 µM): 0.987; relative viability ([4]; first compound 0.1265 µM): 1.1; relative viability ([4]; first compound 0.4 µM): 0.953; relative viability ([4]; first compound 1.265 µM): 1.14; relative viability ([4]; first compound 4 µM): 1.02

Question: What does the source list for RERF-LC-KJ?
Answer: relative viability ([1]; first compound 0.04 µM): 1.2; relative viability ([1]; first compound 0.1265 µM): 1.08; relative viability ([1]; first compound 0.4 µM): 0.95; relative viability ([1]; first compound 1.265 µM): 1.13; relative viability ([1]; first compound 4 µM): 0.878; relative viability ([2]; first compound 0.002 µM): 0.856; relative viability ([2]; first compound 0.006325 µM): 0.845; relative viability ([2]; first compound 0.02 µM): 0.926; relative viability ([2]; first compound 0.06325 µM): 0.912; relative viability ([2]; first compound 0.2 µM): 0.752; relative viability ([3]; first compound 0.04 µM): 0.46; relative viability ([3]; first compound 0.1265 µM): 0.44; relative viability ([3]; first compound 0.4 µM): 0.46; relative viability ([3]; first compound 1.265 µM): 0.491; relative viability ([3]; first compound 4 µM): 0.448; relative viability ([4]; first compound 0.04 µM): 0.922; relative viability ([4]; first compound 0.1265 µM): 0.951; relative viability ([4]; first compound 0.4 µM): 0.884; relative viability ([4]; first compound 1.265 µM): 0.792; relative viability ([4]; first compound 4 µM): 0.638

Question: What does the source list for SK-LU-1?
Answer: relative viability ([1]; first compound 0.04 µM): 1.06; relative viability ([1]; first compound 0.1265 µM): 1.14; relative viability ([1]; first compound 0.4 µM): 0.961; relative viability ([1]; first compound 1.265 µM): 0.95; relative viability ([1]; first compound 4 µM): 1.04; relative viability ([2]; first compound 0.002 µM): 1.01; relative viability ([2]; first compound 0.006325 µM): 1.03; relative viability ([2]; first compound 0.02 µM): 1.15; relative viability ([2]; first compound 0.06325 µM): 0.951; relative viability ([2]; first compound 0.2 µM): 0.968; relative viability ([3]; first compound 0.04 µM): 0.86; relative viability ([3]; first compound 0.1265 µM): 1.06; relative viability ([3]; first compound 0.4 µM): 0.943; relative viability ([3]; first compound 1.265 µM): 0.919; relative viability ([3]; first compound 4 µM): 0.967; relative viability ([4]; first compound 0.04 µM): 0.871; relative viability ([4]; first compound 0.1265 µM): 1.05; relative viability ([4]; first compound 0.4 µM): 0.988; relative viability ([4]; first compound 1.265 µM): 0.683; relative viability ([4]; first compound 4 µM): 0.799

Question: SW 1573 was tested. Which relative viability ([1]; first compound 0.04 µM) did it give?
Answer: Its relative viability is 1.06.

Question: What about the relative viability ([1]; first compound 0.1265 µM) of the same cell line?
Answer: The relative viability was 0.972.

Question: What about the relative viability ([1]; first compound 0.4 µM) of the same cell line?
Answer: The relative viability was 1.02.

Question: And the relative viability ([1]; first compound 1.265 µM)?
Answer: Its relative viability is 0.928.

Question: And the relative viability ([1]; first compound 4 µM)?
Answer: The relative viability was 0.865.

Question: And the relative viability ([2]; first compound 0.002 µM)?
Answer: The relative viability was 0.794.

Question: And the relative viability ([2]; first compound 0.006325 µM)?
Answer: The relative viability was 0.761.

Question: And the relative viability ([2]; first compound 0.02 µM)?
Answer: Its relative viability is 0.7.

Question: And the relative viability ([2]; first compound 0.06325 µM)?
Answer: Its relative viability is 0.752.

Question: What about the relative viability ([2]; first compound 0.2 µM) of the same cell line?
Answer: Its relative viability is 0.837.

Question: And the relative viability ([3]; first compound 0.04 µM)?
Answer: Its relative viability is 0.825.

Question: And the relative viability ([3]; first compound 0.1265 µM)?
Answer: Its relative viability is 0.848.

Question: And the relative viability ([3]; first compound 0.4 µM)?
Answer: Its relative viability is 0.802.

Question: What about the relative viability ([3]; first compound 1.265 µM) of the same cell line?
Answer: The relative viability was 0.702.

Question: And the relative viability ([3]; first compound 4 µM)?
Answer: Its relative viability is 0.739.

Question: And the relative viability ([4]; first compound 0.04 µM)?
Answer: Its relative viability is 0.859.

Question: What about the relative viability ([4]; first compound 0.1265 µM) of the same cell line?
Answer: The relative viability was 0.837.

Question: What about the relative viability ([4]; first compound 0.4 µM) of the same cell line?
Answer: Its relative viability is 0.994.

Question: What about the relative viability ([4]; first compound 1.265 µM) of the same cell line?
Answer: The relative viability was 0.926.

Question: What about the relative viability ([4]; first compound 4 µM) of the same cell line?
Answer: Its relative viability is 0.791.
